Reference: US11105794B2, “In vitro nephrotoxicity screening assay” (Hoffmann-La Roche Inc., priority 2016, dated 2021)
l = locked nucleic acid (LNA); d = 2'-deoxy (DNA)

Legend:
[1] = tested on: Wistar Han Crl:WI(Han) male rats; experiment: In vivo nephrotoxicity in rats
Description: Purpose bred Wistar Han Crl:WI(Han) male rats obtained from Charles River Laboratories at 7 to 8 weeks of age were divided into groups of 4 (table 1, exp. A) or 8 (table 1, exp. B) based on body weight and acclimatized for at least 5 days before dosing. The animals were housed under standard environmental conditions ([…], relative humidity 50±20%, a light/dark cycle 12 h/12 h, pelleted food and water ad libitum), were offered enriched environment in an AAALAC accredited facility and were regularly and carefully monitored. All procedures were in accordance with the respective local regulations and according to the animal permissions granted by the Institutional Animal Care and Use Committee. Test compounds were formulated in isotonic sterile saline, sterile filtered (0.22 μm), and dosed at 40 mg/kg on days 1 and 8 (2.5 ml/kg) in the intrascapular region. Control group animals received saline as vehicle control. On day 15 animals were orally administered tap water (10 ml/kg), and urine was collected on ice for 6 hours in metabolic cages. […] On day 15 the rats were sacrificed by an intraperitoneal injection of pentobarbital and exsanguinated. Kidney cortex samples were collected and fixed by immersion in 10% neutral buffered formalin, embedded in paraffin, sectioned to 5 μm and stained with hematoxylin and eosin (H&). The H&E sections were then scanned at 20× magnification using an Aperio ScanScope AT™ (Leica Biosystems) scanner and pictures were then captured via ImageScope™ software from the scanned images. One or more of the following parameters were assessed kidney weight, serum creatinine, urine protein, KIM-1 protein in urine, KIM-1 mRNA, kidney degeneration/regeneration and relative tubulotoxicity grade.

[2] = tested on: Primary human hepatocytes; experiment: EGF assay, culture media of primary human hepatocytes; assay type: cell-based; conditions: 10 ng/ml EGF in medium;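 note: values as percent of saline vehicle control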
Description: Cryopreserved human hepatocytes were suspended in William's Medium E (WME) without phenol red (Sigma W-1878) supplemented with 10% fetal calf serum, penicillin (100 U/ml), streptomycin (0.1 mg/ml) at a density of approx. 1×10^6 cells/ml and seeded into collagen-coated 96-well plates (Becton Dickinson AG, Allschwil, Switzerland) at a density of 0.4×10^5 cells/well. Cells were pre-cultured for 3 to 4 h allowing for attachment to cell culture plates before start of treatment with oligonucleotides.
Before oligonucleotide treatment the seeding medium was replaced by 90 μl of serum free WME.
The total volume of each well was 100 μl. PBS served as vehicle control.
Human primary hepatocytes were cultivated as described in the “Materials and methods” section with addition of 10 ng/ml of EGF to the medium. At confluence the cells were treated with oligonucleotide as described in the “Materials and methods” section, in concentrations of 10 or 100 μM.
The medium was obtained at day 3, and the EGF level was measured according to the assay described in the “Materials and methods” section.

PCSK9 mRNA = experiment: Target knock down (PCSK9 mRNA levels) in PTEC-TERT1 cells; assay type: cell-based, human; conditions: normalized to PPIB
Description: For assessment of the target knock down (PCSK9 mRNA levels) total mRNA was extracted from the cells adding 100 μl of 1× RNA lysis mixture (QuantiGene® Sample Processing Kit, QS0101) directly into the wells according to the manufacturer's instructions. RNA lysis mixtures were kept at −80° C. until analysis. For gene expression analysis, 20 μl of lysates were mixed with an mRNA-capture magnetic beads sets (Panomics QuantiGene® Plex Set catalog #12697), incubated overnight, processed for branched DNA amplification and analyzed according to the manufacturer's instructions (Panomics QuantiGene® Plex Assay kit, QP1015). The PPIB probe was used as housekeeping gene for normalization. Average Fluoresence Intensity (FI) and standard deviation of 3 biological replicates were calculated and normalized on vehicle control. The results are shown in table 11, and represent the average of three identical treatments.

A549 cells [3] = experiment: Intracellular ATP assay, A549 cells transfected with oligonucleotide; assay type: cell-based, human; conditions: A549, 48 hours after transfection;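 note: ATP as percent of saline control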
Description: (§1) A549 cells (ATCC CCL-185) were cultivated according to the manufacturer's instructions in A549 medium [F-12K Nut Mix (Gibco, 21127-022), 1% penicillin/streptomycin (Gibco: 15140-122), 10% FBS (Gibco 16000-044)].
(§2) Prior to treatment with oligonucleotides the A549 cells were seeded in 96 well plates at 3′000 cells per well in A549 regular medium and grown until 60% confluence. […]
Each sample was tested in triplicate.
(§3) A549 were cultivated as described in the “Materials and methods” section. At after at 50-60% confluence the oligonucleotides were transfected into the cells using 0.5 μl Lipofectamin (Invitrogen, 11668-019) in 25 μl OptiMEM® (GIBCO 31985062) and 1 ng or 10 ng oligonucleotide in the same volume OptiMEM. The cells were incubated over night at 37° C. The medium was changed using A459 regular medium+10 ng/ml EGF. 48 hours after transfection the medium was collected for EGF measurements and the cells were harvested for ATP measurements.

PTEC-TERT1 cells [4] = experiment: EGF assay, supernatant of PTEC-TERT1 cells
Description: (§4) Prior to treatment with oligonucleotides the PTEC-TERT1 were seeded into collagen I-coated 96-well plates (Corning, 356407) at a density of 40 000 and 20 000 cells/well respectively in PTEC medium and grown until confluence.
(§5) Oligonucleotides were dissolved in PBS and added to the cell culture at the given concentration, such as 10, 30 or 100 μM. The total volume of each well was 100 μl. PBS served as vehicle control.
(§6) When extra cellular markers, like EGF and KIM-1, were analyzed following the oligonucleotide treatment the medium was collected and stored at −20° C. until further analysis. […] The collected medium was stored at −20° C.
(§7) For analysis of human EGF, cell supernatants were thawed on ice, diluted 1:2 and 1:10 in sample dilution buffer (BioRad catalog # M60-009RDPD) and analyzed by Luminex®-based ELISA using human EGF beads (Bio-Plex Pro™ Human Cancer Biomarker Panel 2 EGF Set#171BC603M), or followed by analysis using the Bio-Plex® 200 Systems (BioRad) according to the manufacturer's instructions. Data are reported as mean concentrations and standard deviations of triplicate wells.

A549 cells [5] = experiment: EGF assay, A549 cells transfected with oligonucleotide; assay type: cell-based, human; conditions: A549, 48 hours after transfection;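 note: values as percent of saline control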
Description: as §1, §2, §3

PTEC-TERT1 cells [6] = tested on: PTEC-TERT1 cells
Description: as §4, §5, §6
For analysis of human KIM-1, cell supernatants were thawed on ice, diluted 1:2 and 1:10 in sample dilution buffer (BioRad catalog # M60-009RDPD) and analyzed by Luminex®-based ELISA using human KIM-1 beads (Human Kidney Injury panel 4, Millipore HKI4MAG-99K-KIM1) followed by analysis using the Bio-Plex® 200 Systems (BioRad) according to the manufacturer's instructions. Data are reported as mean concentrations and standard deviations of triplicate wells. An increase of KIM-1 levels above 200% was considered as predictive for nephrotoxicity.

PTEC-TERT1 cells [7] = tested on: PTEC-TERT1 cells; remark: listed apart in the source
Description: as §4, §5, §6, §7

PTEC-TERT1 cells [8] = experiment: Morphological changes of PTEC-TERT1 cells upon oligonucleotide treatment; assay type: cell-based, human; conditions: 100 μM oligonucleotide, 7 days, bright field microscopy, vs saline
Description: PTEC-TERT1 cells were cultures as described in the “Materials and methods” section. To mimic the physiological exposure of renal tubules to circulating naked oligonucleotide (i.e. without assistance of delivery technology, herein termed gymnosis or gymnotic delivery), confluent monolayers of PTEC-TERT1 cells were exposed to an aqueous solution of 100 μM oligonucleotide. The medium was replaced every three days including 100 μM fresh oligonucleotide in the fresh medium.
After 7 days of treatment the morphological alterations in the treated cell cultures were investigated under bright field microscopy.

[9] = tested on: Human primary proximal tubule epithelial cells (PTEC); experiment: EGF assay, supernatant of primary PTEC cells
Description: Prior to treatment with oligonucleotides the primary PTEC cells were seeded into collagen I-coated 96-well plates (Corning, 356407) at a density of 40 000 and 20 000 cells/well respectively in PTEC medium and grown until confluence.
as §5, §6
For analysis of human EGF, cell supernatants were thawed on ice, diluted 1:2 and 1:10 in sample dilution buffer (BioRad catalog # M60-009RDPD) and analyzed by Luminex®-based ELISA using human EGF beads (Bio-Plex Pro™ Human Cancer Biomarker Panel 2 EGF Set#171BC603M), or followed by analysis using the Bio-Plex® 200 Systems (BioRad) according to the manufacturer's instructions. Data are reported as mean concentrations and standard deviations of triplicate wells. An increase of EGF levels above 200% was considered as predictive for nephrotoxicity.

[10] = PTEC-TERT1, Day 3, 11 μM (Table 3)
[11] = PTEC-TERT1, Day 3, 33 μM (Table 3)
[12] = PTEC-TERT1, Day 3, 100 μM (Table 3)
[13] = PTEC-TERT1, Day 7, 11 μM (Table 3)
[14] = PTEC-TERT1, Day 7, 33 μM (Table 3)
[15] = PTEC-TERT1, Day 7, 100 μM (Table 3)
[16] = PTEC-TERT1, Day 10, 11 μM (Table 3)
[17] = PTEC-TERT1, Day 10, 33 μM (Table 3)
[18] = PTEC-TERT1, Day 10, 100 μM (Table 3)

Substance | EGF ([2]; day 3, 10 μM) [% saline] | EGF ([2]; day 3, 100 μM) [% saline] | ATP (A549 cells [3]; 1 ng oligonucleotide) [% saline] | ATP (A549 cells [3]; 10 ng oligonucleotide) [% saline] | EGF (PTEC-TERT1 cells [4]; [10]) [% saline] | EGF (PTEC-TERT1 cells [4]; [11]) [% saline] | EGF (PTEC-TERT1 cells [4]; [12]) [% saline] | EGF (PTEC-TERT1 cells [4]; [13]) [% saline] | EGF (PTEC-TERT1 cells [4]; [14]) [% saline] | EGF (PTEC-TERT1 cells [4]; [15]) [% saline] | EGF (PTEC-TERT1 cells [4]; [16]) [% saline] | EGF (PTEC-TERT1 cells [4]; [17]) [% saline] | EGF (PTEC-TERT1 cells [4]; [18]) [% saline] | EGF (A549 cells [5]; 1 ng oligonucleotide) [% saline] | EGF (A549 cells [5]; 10 ng oligonucleotide) [% saline] | other results
AATgctacaaaaCCCA (antisense AATGCTACAAAACCCA; sugars from the 5' end l3 d9 l4, backbone and methylation of C not given here) [Compound 2-1] | 122 | 211 | 96 | 59 | 135 | 192 | 172 | 69 | 88 | 117 | 47 | 63 | 154 | 80 | 161 | In vivo nephrotoxicity / in vivo grade of toxicity ([1]; 40 mg/kg on days 1 and 8, assessed day 15, 40 mg/kg): low and Low; PCSK9 mRNA (PCSK9 mRNA; PTEC-TERT1, EGF 0 ng/ml in medium): 1.73 % of saline; PCSK9 mRNA (PCSK9 mRNA; PTEC-TERT1, EGF 10 ng/ml in medium): 1.02 % of saline
Compound 20-1: antisense oligonucleotide comprising 2′-O-methoxyethyl-RNA (MOE) modifications, targeting sodium-glucose co-transporter 2 (SGLT2), SEQ ID NO 20 (GGCATGAGCTTC; MOE modifications, pattern not given here) | – | – | – | – | – | – | – | – | – | – | – | – | – | – | – | In vivo nephrotoxicity / in vivo grade of toxicity ([1]; 40 mg/kg on days 1 and 8, assessed day 15): low/medium; predictive KIM-1 elevation (PTEC-TERT1 cells [6]): observed; prediction of in vivo nephrotoxicity with EGF as biomarker (PTEC-TERT1 cells [7]): could be predicted
CGTcagtatgcgAATc (CGTCAGTATGCGAATC; chemistry not given here) [Compound 1-1] | 123 | 159 | 89 | 100 | 145 | 214 | 137 | 94 | 122 | 135 | 32 | 41 | 59 | 69 | 75 | morphological changes (PTEC-TERT1 cells [8]): did not show any morphological changes; EGF ([9]; Day 3, 3 μM): 95 % saline; EGF ([9]; Day 3, 10 μM): 99 % saline; EGF ([9]; Day 3, 30 μM): 112 % saline; EGF ([9]; Day 3, 100 μM): 120 % saline; EGF ([9]; Day 6, 3 μM): 62 % saline; EGF ([9]; Day 6, 10 μM): 71 % saline; EGF ([9]; Day 6, 30 μM): 77 % saline; EGF ([9]; Day 6, 100 μM): 98 % saline; EGF (PTEC-TERT1 cells [4]; PTEC-TERT1, Day 3, 3 μM (Table 2)): 88 % saline; EGF (PTEC-TERT1 cells [4]; PTEC-TERT1, Day 3, 10 μM (Table 2)): 93 % saline; EGF (PTEC-TERT1 cells [4]; PTEC-TERT1, Day 3, 30 μM (Table 2)): 108 % saline; EGF (PTEC-TERT1 cells [4]; PTEC-TERT1, Day 3, 100 μM (Table 2)): 119 % saline; EGF (PTEC-TERT1 cells [4]; PTEC-TERT1, Day 6, 3 μM (Table 2)): 124 % saline; EGF (PTEC-TERT1 cells [4]; PTEC-TERT1, Day 6, 10 μM (Table 2)): 152 % saline; EGF (PTEC-TERT1 cells [4]; PTEC-TERT1, Day 6, 30 μM (Table 2)): 180 % saline; EGF (PTEC-TERT1 cells [4]; PTEC-TERT1, Day 6, 100 μM (Table 2)): 172 % saline
